Laboratory results published in ChEMBL document CHEMBL1151966, “Okundoperoxide, a bicyclic cyclofarnesylsesquiterpene endoperoxide from Scleria striatinux with antiplasmodial activity” (J Nat Prod, 2009).
Converted amounts (≈) assume the structure as drawn.

Legend:
Plasmodium falciparum [1] = assay: Antiplasmodial activity after 24 hrs against chloroquine-resistant Plasmodium falciparum W2 infected human erythrocytes by [3H]hypoxanthine uptake; type: functional, organism-based
Plasmodium falciparum [2] = assay: Antiplasmodial activity after 24 hrs against chloroquine-sensitive Plasmodium falciparum D6 infected human erythrocytes by [3H]hypoxanthine uptake; type: functional, organism-based
Plasmodium falciparum [3] = assay: Antiplasmodial activity after 24 hrs against chloroquine,pyrimethamine-resistant Plasmodium falciparum K1 infected human erythrocytes by [3H]hypoxanthine uptake; type: functional, organism-based
Plasmodium falciparum [4] = assay: Antiplasmodial activity after 24 hrs against drug-sensitive Plasmodium falciparum NF54 infected human erythrocytes by [3H]hypoxanthine uptake; type: functional, organism-based
[5] = Cytotoxicity against human erythrocytes; type: cell-based; conditions: Erythrocyte

C/C(=C\CO)[C@H]1C[C@H]2C(C)(C)C(=O)C=C[C@]2(C)OO1 (relative stereo) [OKUNDOPEROXIDE] gave an IC50 (Plasmodium falciparum [1]) of 0.47 µg/mL (≈ 1.76 µM), an IC50 (Plasmodium falciparum [2]) of 0.483 µg/mL (≈ 1.81 µM) and an IC50 (Plasmodium falciparum [3]) of 1.5 µg/mL (≈ 5.62 µM). It also gave an IC50 (Plasmodium falciparum [4]) of 1.31 µg/mL (≈ 4.91 µM) and an IC50 [5] of 22.7 µg/mL (≈ 85.2 µM).

With COc1cc([C@@H]2c3cc4c(cc3[C@H](O)[C@H]3COC(=O)[C@H]23)OCO4)cc(OC)c1OC [PODOFILOX] the IC50 [5] was 0.007 µg/mL (≈ 0.0169 µM).
